# Source: US20060293264A1, “STAT3 decoy oligonucleotides and uses therefor” (priority 2004, published 2006)
# Entries after “also recorded” stand apart in the source; their conditions may differ.
# Columns and labels:
# [1] = system: Egr-1 transcription recognition sequence; assay: pEgr-1-Luc reporter assay in SCCHN cells; format: cell-based; conditions: SCCHN cells co-transfected with 2 μg pEgr-1-Luc and 2 μg decoy, 24 hrs
# Method: STAT3 decoy-specific transcriptional repression of Egr-1(Early Growth Response -1 enhancer, pEGR-1-Luc, Stratagene Cat. No. 240130, containing three repeats of the Egr-1 transcription recognition sequence: 5′-GGGTGGGGN-3′ (SEQ ID NO: 31) was also observed. SCCHN cells were co-transfected with 2 μg pEgr-1-Luc plasmid and 2 μg of the STAT3 decoy or the control mutant decoy. At 24 hrs after transfection, luciferase activity was measured and normalized to the total amount of protein according to standard methods.
# STAT1 = target: T1, STAT1 (Homo sapiens, UniProt P42224); assay: EMSA of STAT1 binding to the STAT3 decoy, PCI-15B nuclear extracts; conditions: supershift
# T1 construct: Nuclear protein extracts of PCI-15B cells, prepared according to standard methods, were used for the EMSA; endogenous in cells; host or cells: PCI-15B cells (nuclear extract)
# T1 sequence (P42224 2-750 limits assumed): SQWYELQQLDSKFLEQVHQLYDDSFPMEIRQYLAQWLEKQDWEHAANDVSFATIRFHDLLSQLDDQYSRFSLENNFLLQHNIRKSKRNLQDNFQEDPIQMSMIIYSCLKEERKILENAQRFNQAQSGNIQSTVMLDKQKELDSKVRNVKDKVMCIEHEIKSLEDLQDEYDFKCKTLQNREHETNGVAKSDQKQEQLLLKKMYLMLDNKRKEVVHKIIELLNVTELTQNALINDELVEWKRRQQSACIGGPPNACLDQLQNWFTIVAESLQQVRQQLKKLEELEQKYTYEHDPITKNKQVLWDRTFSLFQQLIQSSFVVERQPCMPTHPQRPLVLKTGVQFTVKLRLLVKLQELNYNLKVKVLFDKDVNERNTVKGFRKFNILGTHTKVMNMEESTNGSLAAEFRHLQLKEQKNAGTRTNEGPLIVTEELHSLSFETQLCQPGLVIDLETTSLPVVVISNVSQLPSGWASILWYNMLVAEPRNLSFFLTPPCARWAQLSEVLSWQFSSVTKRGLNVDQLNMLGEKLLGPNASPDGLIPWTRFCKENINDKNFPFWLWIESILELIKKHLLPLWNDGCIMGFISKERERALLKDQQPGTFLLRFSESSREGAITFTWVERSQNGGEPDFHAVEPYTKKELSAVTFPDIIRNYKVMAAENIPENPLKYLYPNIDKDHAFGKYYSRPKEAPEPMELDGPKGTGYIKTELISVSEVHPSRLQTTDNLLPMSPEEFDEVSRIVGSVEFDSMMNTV
# Method: FIG. 10 depicts binding of STAT 1 to the STAT3 decoy in an electrophoretic mobility shift assay (EMSA). Nuclear protein extracts of PCI-15B cells, prepared according to standard methods, were used for the EMSA. The specificity of STAT1 or STAT3 binding to the STAT3 decoy was determined by supershifting with STAT1- or STAT3-specific antibodies, or both. The experiment has been repeated more than 3 times.
# SCCHN cells (1483) = assay: Annexin 5-Cy3 apoptosis assay in SCCHN cells; format: cell-based; conditions: 1483 cells; 25 μM, 6 days; p<0.0001
# Method: SCCHN cells (1483) were treated with mutant control decoy (25 μM), or STAT3 decoy alone (25 μM), or cisplatin alone (20 μM), or STAT3 decoy (25 μM) plus cisplatin (20 μM). Mutant control decoy or STAT3 decoy was always applied for a total of 6 days, and cisplatin was added for the last 24 hr before harvesting. The effects of the STAT3 decoy plus cisplatin on apoptosis was assessed by an Annexin 5-Cy3 apoptosis assay (BioVision Research Products, 2455-D Old Middlefield Way, Mountain View, Calif. 94043 USA) and Bcl-xL and Cyclin D1 were examined using immunoblotting as described below.
# Following treatment with STAT3 decoy plus cisplatin, SCCHN cells were detached by trypsinization, counted and pelleted (1000 r.p.m. for 5 min). Cell pellets were washed once with PBS (pH 7.4) and resuspended in 100 μl Annexin V binding buffer (10 mM HEPES, pH 7.4, 140 mM NaCl, 2.5 mM CaCl2). […] The membranes of apoptotic cells are stained a bright orange color when analyzed with a fluorescence microscope. The ratio (percentage) of apoptotic to total cells (apoptotic plus non-apoptotic cells) was calculated for each high power field. For each treatment, 5-10 high power fields of view were quantitated on each section.
# [2] = system: SCCHN xenografts (1483 cells); assay: In vivo tumor xenograft study, tumor volumes; design: species or system athymic nude mice; conditions: 25 μg intratumoral daily, 1483 xenografts, nude mice; p=0.002
# Method: Statistics. In vivo comparisons of STAT3, cyclin D1 and Bcl-xL expression levels were conducted with the Wilcoxon test for comparing two groups or the Kruskal-Wallis test for comparing three groups. All tests were exact and two-tailed. Studies of the joint effect of STAT3 decoy and cisplatin upon in vitro apoptosis were evaluated with a two way factorial design. Additive and synergistic effects of the STAT3 decoy and cisplatin were tested with a permutation test. In vivo tumor xenograft experiments were analyzed with mixed linear models that assumed animals were random effects having an unstructured within-animal covariance matrix. Data were log transformed and examined for the interaction between treatment group and day of observation beginning with day 10 after tumor inoculation, differences between treatment groups were estimated and tested with the pooled estimated standard error. Multiple comparisons were controlled by simulating observations from a multivariate t distribution with the same covariance matrix as the observed data and adjusting p values accordingly.
# In vivo tumor xenograft studies. Female athymic nude mice nu/nu (4-6 weeks old; 20±2 g; Harlan-Sprague-Dawley) were implanted with 1×10^6 1483 cells into the right and left flank with a 26-gauge needle/1 ml tuberculin syringe, resulting in two tumors per mouse. […]
substance,measurement,setting,value
"STAT3 decoy (sense CATTTCCCGTAAATC; antisense GATTTACGGGAAATG; phosphorothioate modified, further chemistry not given here; listed as Homo sapiens)",transcriptional repression of Egr-1 enhancer reporter,[1],observed
same,binding to STAT1,STAT1,able to bind
same,apoptosis compared with mutant control decoy,SCCHN cells (1483),increased
same,tumor growth (tumor volumes) compared with mutant control decoy,[2],significantly decreased; also recorded: growth inhibited
